The text below walks through data of patent US9193728B2, “Fused tetracyclic pyrido [4,3-B] indole and pyrido [3,4-B] indole derivatives and methods of use” (Medivation Technologies, Inc., priority 2010, dated 2015).

The term inhibition denotes the change of the read-out against control, counted positive when it falls.

Data set [1] has as its target T1, human recombinant dopamine D2L receptor (Homo sapiens, UniProt P14416).
T1 construct: expressed in transfected cells; host or cells: CHO
Kind of data set: Dopamine D2L radioligand binding ([3H]Spiperone). The settings on record: compound at 1 μM; read-out: Dopamine (1 μM) D2L, percentage inhibition of ligand binding. The method, then:
To evaluate in radioligand binding assays the activity of compounds of the invention, human recombinant dopamine D2L receptor expressed in Chinese hamster ovary (CHO) cells (Grandy, D. et al, Proc. Natl. Acad. Sci. USA. 86:9762, 1989; Hayes, G. et al, Mol. Endocrinol. 6:920, 1992) in a modified Tris-HCl buffer (50 mM Tris-HCl, pH 7.4, 1.4 mM Ascorbic Acid, 0.001% BSA, 150 mM NaCl) was used. Compounds of the invention were incubated with 0.16 nM [^3H]Spiperone for 120 min. at 25° C. Non-specific binding was estimated in the presence of 10 μM Haloperidol. Receptor proteins were filtered and washed, the filters were then counted to determine [^3H]Spiperone specifically bound. Compounds were screened at 1 μM or lower, using 1% DMSO as vehicle. Biochemical assay results are presented as the percent inhibition of specific binding in Table 3.

In data set [2] the target is T2, human recombinant serotonin (5-Hydroxytryptamine) 5-HT2C receptor (Homo sapiens, UniProt P28335).
T2 construct: expressed in transfected cells; host or cells: CHO-K1
T2 sequence (P28335 33-458): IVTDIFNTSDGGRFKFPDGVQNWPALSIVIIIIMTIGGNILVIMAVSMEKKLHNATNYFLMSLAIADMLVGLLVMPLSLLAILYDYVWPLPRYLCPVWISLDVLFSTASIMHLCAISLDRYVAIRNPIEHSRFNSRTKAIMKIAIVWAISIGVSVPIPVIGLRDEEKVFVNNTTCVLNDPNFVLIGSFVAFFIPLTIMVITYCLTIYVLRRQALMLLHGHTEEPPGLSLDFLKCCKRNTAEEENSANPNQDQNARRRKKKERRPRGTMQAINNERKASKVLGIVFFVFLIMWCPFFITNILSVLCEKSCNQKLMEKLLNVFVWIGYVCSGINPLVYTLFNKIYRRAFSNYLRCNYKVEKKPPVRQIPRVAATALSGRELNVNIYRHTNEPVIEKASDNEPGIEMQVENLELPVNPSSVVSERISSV
The data set can be described thus: Serotonin 5-HT2C radioligand binding ([3H]Mesulergine). The settings on record: for inhibition at 1 µM: compound at 1 μM, read-out: Serotonin (1 μM) 5-HT2C, percentage inhibition of ligand binding; for inhibition at 0.1 µM: compound at 0.1 μM, read-out: Serotonin (0.1 μM) 5-HT2C, percentage inhibition of ligand binding. The method, then: To evaluate in radioligand binding assays the activity of compounds of the invention, human recombinant serotonin (5-Hydroxytryptamine) 5-HT2C receptor expressed in Chinese hamster ovary (CHO)-K1 cells (Wolf, W. et al, J. Neurochem. 69:1449, 1997) in a modified Tris-HCl buffer (50 mM Tris-HCl, pH 7.4, 0.1% Ascorbic Acid, 10 μM Pargyline) was used. Compounds of the invention were incubated with 1 nM [^3H]Mesulergine for 60 min. at 25° C. Non-specific binding was estimated in the presence of 1 μM Mianserin. Receptor proteins were filtered and washed, the filters were then counted to determine [^3H]Mesulergine specifically bound. Compounds were screened at 1 μM or lower, using 1% DMSO as vehicle. Biochemical assay results are presented as the percent inhibition of specific binding in Table 4.

Data set [3] deals with T3, human recombinant serotonin (5-Hydroxytryptamine) 5-HT2A receptor (Homo sapiens, UniProt P28223).
T3 construct: expressed in transfected cells; host or cells: CHO-K1
T3 sequence (P28223 whole entry): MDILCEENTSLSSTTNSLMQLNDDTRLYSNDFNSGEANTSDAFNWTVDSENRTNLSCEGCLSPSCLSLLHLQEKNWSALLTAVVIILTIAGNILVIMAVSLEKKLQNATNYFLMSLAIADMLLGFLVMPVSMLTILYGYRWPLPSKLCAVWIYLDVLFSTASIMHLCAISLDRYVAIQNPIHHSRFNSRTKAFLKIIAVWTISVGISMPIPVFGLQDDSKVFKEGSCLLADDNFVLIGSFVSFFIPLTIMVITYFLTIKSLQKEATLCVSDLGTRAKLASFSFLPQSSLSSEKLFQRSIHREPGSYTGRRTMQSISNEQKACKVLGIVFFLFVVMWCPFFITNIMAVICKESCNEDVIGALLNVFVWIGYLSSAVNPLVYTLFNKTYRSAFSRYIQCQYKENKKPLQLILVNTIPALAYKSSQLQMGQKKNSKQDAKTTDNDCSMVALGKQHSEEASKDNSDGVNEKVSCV
Kind of data set: Serotonin 5-HT2A radioligand binding ([3H]Ketanserin). The settings on record: for inhibition at 1 µM: compound at 1 μM, read-out: Serotonin (1 μM) 5-HT2A, percentage inhibition of ligand binding; for inhibition at 0.1 µM: compound at 0.1 μM, read-out: Serotonin (0.1 μM) 5-HT2A, percentage inhibition of ligand binding. As for the experimental part:
To evaluate in radioligand binding assays the activity of compounds of the invention, human recombinant serotonin (5-Hydroxytryptamine) 5-HT2A receptor expressed in Chinese hamster ovary (CHO)-K1 cells (Bonhaus, D. et al, Br. J. Pharmacol. 115:622, 1995; Saucier, C. et al, J. Neurochem. 68:1998, 1997) in a 50 mM Tris-HCl buffer, pH 7.4, was used. Compounds of the invention were incubated with 0.5 nM [^3H]Ketanserin for 60 min. at 25° C. Non-specific binding was estimated in the presence of 1 μM Mianserin. Receptor proteins were filtered and washed, the filters were then counted to determine [^3H]Ketanserin specifically bound. Compounds were screened at 1 μM or lower, using 1% DMSO as vehicle. Biochemical assay results are presented as the percent inhibition of specific binding in Table 4.

The target in data set [4] is T4, human recombinant histamine H1 receptor (Homo sapiens, UniProt P35367).
T4 construct: expressed in transfected cells; host or cells: CHO-K1
T4 sequence (P35367 whole entry): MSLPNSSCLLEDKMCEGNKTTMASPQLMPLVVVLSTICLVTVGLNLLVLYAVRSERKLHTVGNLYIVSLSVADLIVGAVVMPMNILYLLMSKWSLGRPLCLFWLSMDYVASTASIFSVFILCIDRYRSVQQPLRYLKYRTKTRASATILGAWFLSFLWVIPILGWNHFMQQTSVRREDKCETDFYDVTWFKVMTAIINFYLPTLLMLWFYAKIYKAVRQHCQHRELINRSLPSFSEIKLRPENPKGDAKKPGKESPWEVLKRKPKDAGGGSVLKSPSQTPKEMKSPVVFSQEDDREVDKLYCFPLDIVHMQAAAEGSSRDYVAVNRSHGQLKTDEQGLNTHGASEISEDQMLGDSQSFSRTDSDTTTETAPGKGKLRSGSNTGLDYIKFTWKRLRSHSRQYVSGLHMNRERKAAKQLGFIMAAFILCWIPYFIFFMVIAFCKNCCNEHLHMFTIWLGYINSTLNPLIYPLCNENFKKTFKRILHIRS
Kind of data set: Histamine H1 radioligand binding ([3H]Pyrilamine). The settings on record: compound at 1 μM; 1.2 nM [3H]Pyrilamine; read-out: Histamine Binding (1 μM) H1, percentage inhibition. The method, then: To evaluate in radioligand binding assays the activity of compounds of the invention, human recombinant histamine H1 receptor expressed in Chinese hamster ovary (CHO) K1 cells (De Backer, M. et al, Biochem. Biophys. Res. Comm. 197(3):1601, 1993) in a modified Tris-HCl buffer (50 mM Tris-HCl, pH 7.4, 2 mM MgCl2, 100 mM NaCl, 250 mM Sucrose) was used. Compounds of the invention were incubated with 1.2 nM [^3H]Pyrilamine for 180 min. at 25° C. Non-specific binding was estimated in the presence of 1 μM Pyrilamine. Receptor proteins were filtered and washed, the filters were then counted to determine [^3H]Pyrilamine specifically bound. Compounds were screened at 1 μM or lower, using 1% DMSO as vehicle. Biochemical assay results are presented as the percent inhibition of specific binding in Table 2.

Data set [5] concerns the target T5, human recombinant serotonin (5-Hydroxytryptamine) 5-HT6 receptor (Homo sapiens, UniProt P50406).
T5 construct: expressed in transfected cells; host or cells: HeLa
The data set can be described thus: Serotonin 5-HT6 radioligand binding ([3H]LSD). The settings on record: for inhibition at 1 µM: compound at 1 μM, read-out: Serotonin (1 μM) 5-HT6, percentage inhibition of ligand binding; for inhibition at 0.1 µM: compound at 0.1 μM, read-out: Serotonin (0.1 μM) 5-HT6, percentage inhibition of ligand binding. As for the experimental part:
To evaluate in radioligand binding assays the activity of compounds of the invention, human recombinant serotonin (5-Hydroxytryptamine) 5-HT6 receptor expressed in human HeLa cells (Monsma, F. Jr. et al, Mol. Pharmacol. 43:320, 1993) in a modified Tris-HCl buffer (50 mM Tris-HCl, pH 7.4, 150 mM NaCl, 2 mM Ascorbic Acid, 0.001% BSA) was used. Compounds of the invention were incubated with 1.5 nM [3H]Lysergic acid diethylamide (LSD) for 120 min. at 37° C. Non-specific binding was estimated in the presence of 5 μM Serotonin (5-HT). Receptor proteins were filtered and washed, the filters were then counted to determine [3H]LSD specifically bound. Compounds were screened at 1 μM or lower, using 1% DMSO as vehicle. Biochemical assay results are presented as the percent inhibition of specific binding in Table 4.

The target in data set [6] is T6, human recombinant histamine H2 receptor (Homo sapiens, UniProt P25021).
T6 construct: expressed in transfected cells; host or cells: CHO-K1
T6 sequence (P25021 whole entry): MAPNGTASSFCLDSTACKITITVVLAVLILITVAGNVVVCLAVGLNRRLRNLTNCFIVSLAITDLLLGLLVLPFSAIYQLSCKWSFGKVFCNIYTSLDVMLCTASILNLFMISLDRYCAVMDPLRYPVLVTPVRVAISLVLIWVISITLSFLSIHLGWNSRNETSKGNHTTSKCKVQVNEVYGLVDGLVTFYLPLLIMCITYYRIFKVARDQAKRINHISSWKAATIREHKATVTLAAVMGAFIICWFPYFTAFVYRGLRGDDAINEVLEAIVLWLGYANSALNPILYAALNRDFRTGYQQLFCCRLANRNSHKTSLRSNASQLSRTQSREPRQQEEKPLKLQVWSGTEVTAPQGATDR
Kind of data set: Histamine H2 radioligand binding ([125I]Aminopotentidine). The settings on record: compound at 1 μM; 0.1 nM [125I]Aminopotentidine; read-out: Histamine Binding (1 μM) H2, percentage inhibition. As for the experimental part:
To evaluate in radioligand binding assays the activity of compounds of the invention, human recombinant histamine H2 receptor expressed in Chinese hamster ovary (CHO) K1 cells (Ruat, M., Proc. Natl. Acad. Sci. USA. 87(5):1658, 1990) in a 50 mM Phosphate buffer, pH 7.4 was used. Compounds of the invention were incubated with 0.1 nM [^125I]Aminopotentidine for 120 min. at 25° C. Non-specific binding was estimated in the presence of 3 μM Tiotidine. Receptor proteins were filtered and washed, the filters were then counted to determine [^125I]Aminopotentidine specifically bound. Compounds were screened at 1 μM or lower, using 1% DMSO as vehicle. Biochemical assay results are presented as the percent inhibition of specific binding in Table 2.

The nature of data set [7]: Stability of product in acidic medium (note in preparation). The format is physicochemical.
The target of data set [8] is T7, human recombinant serotonin (5-Hydroxytryptamine) 5-HT7 receptor (Homo sapiens, UniProt P34969).
T7 construct: expressed in transfected cells; host or cells: CHO
T7 sequence (P34969 whole entry): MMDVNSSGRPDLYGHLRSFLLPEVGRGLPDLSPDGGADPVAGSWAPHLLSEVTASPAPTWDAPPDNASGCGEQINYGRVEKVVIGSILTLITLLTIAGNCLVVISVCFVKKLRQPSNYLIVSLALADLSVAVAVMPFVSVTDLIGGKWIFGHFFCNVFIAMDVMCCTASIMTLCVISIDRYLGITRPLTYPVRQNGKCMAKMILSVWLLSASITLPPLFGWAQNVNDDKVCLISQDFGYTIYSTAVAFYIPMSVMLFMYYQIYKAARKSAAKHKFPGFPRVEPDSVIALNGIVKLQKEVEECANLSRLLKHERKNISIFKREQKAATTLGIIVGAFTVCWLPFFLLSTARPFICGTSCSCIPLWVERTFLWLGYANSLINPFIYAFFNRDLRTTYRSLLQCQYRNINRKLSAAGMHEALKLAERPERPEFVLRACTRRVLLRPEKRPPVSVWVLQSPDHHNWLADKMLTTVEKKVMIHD
The data set can be described thus: Serotonin 5-HT7 radioligand binding ([3H]LSD). The settings on record: for inhibition at 0.1 µM: compound at 0.1 μM, read-out: Serotonin (0.1 μM) 5-HT7, percentage inhibition of ligand binding; for inhibition at 1 µM: compound at 1 μM, read-out: Serotonin (1 μM) 5-HT7, percentage inhibition of ligand binding. As for the experimental part:
To evaluate in radioligand binding assays the activity of compounds of the invention, human recombinant serotonin (5-Hydroxytryptamine) 5-HT7 receptor expressed in Chinese hamster ovary (CHO) cells (Roth, B. et al, J. Pharmacol. Exp. Ther. 268:1403, 1994; Shen, Y. et al, J. Biol. Chem. 268:18200, 1993) in a modified Tris-HCl buffer (50 mM Tris-HCl, pH 7.4, 10 mM MgCl2, 0.5 mM EDTA) was used. Compounds of invention were incubated with 5.5 nM [^3H]Lysergic acid diethylamide (LSD) for 120 min. at 25° C. Non-specific binding was estimated in the presence of 10 μM Serotonin (5-HT). Receptor proteins were filtered and washed, the filters were then counted to determine [^3H]LSD specifically bound. Compounds were screened at 1 μM or lower, using 1% DMSO as vehicle. Biochemical assay results are presented as the percent inhibition of specific binding in Table 4.

T1 sequence (P14416 whole entry): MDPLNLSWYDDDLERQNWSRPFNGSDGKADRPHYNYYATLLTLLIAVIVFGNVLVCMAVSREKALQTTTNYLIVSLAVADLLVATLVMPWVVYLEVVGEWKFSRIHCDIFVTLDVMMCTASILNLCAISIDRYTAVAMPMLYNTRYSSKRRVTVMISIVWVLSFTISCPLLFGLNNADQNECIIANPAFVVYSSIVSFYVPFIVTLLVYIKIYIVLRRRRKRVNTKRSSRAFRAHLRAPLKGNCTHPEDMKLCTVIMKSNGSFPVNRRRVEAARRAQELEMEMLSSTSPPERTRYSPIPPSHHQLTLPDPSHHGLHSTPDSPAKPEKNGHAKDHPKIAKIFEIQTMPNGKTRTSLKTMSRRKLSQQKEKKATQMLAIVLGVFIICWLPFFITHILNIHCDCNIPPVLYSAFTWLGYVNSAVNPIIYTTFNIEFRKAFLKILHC
T5 sequence (P50406 whole entry): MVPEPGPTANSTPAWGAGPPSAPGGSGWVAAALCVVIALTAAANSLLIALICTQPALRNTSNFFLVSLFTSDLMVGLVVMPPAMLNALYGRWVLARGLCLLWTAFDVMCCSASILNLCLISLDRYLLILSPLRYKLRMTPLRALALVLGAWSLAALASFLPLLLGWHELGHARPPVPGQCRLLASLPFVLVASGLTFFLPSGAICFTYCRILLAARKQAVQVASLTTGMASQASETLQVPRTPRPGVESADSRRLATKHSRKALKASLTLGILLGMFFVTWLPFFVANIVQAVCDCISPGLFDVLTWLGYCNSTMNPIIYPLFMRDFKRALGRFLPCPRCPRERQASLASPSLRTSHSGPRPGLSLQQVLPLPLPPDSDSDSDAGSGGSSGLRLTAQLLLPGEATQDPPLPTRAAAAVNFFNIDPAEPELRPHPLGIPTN

Regarding `Cc1cc2c3c(c1)c1c(n3CC(c3ccc(C)nc3)C2)CCN(C)C1` (stereo not drawn) [Compound 1], the inhibition at 1 µM was -1% in data set [1]; 19% in data set [2]; 20% in data set [3]; 44% in data set [4]; 24% in data set [5]; 42% in data set [6].

For the compound `Cc1cc2c3c(c1)c1c(n3CC(c3ccc(F)cc3)=C2)CCN(C)C1` [Compound 158], the inhibition at 1 µM in data set [1] came to 99%; in data set [4], 27%. Moreover, the inhibition at 0.1 µM in data set [2] is 55%; in data set [3] it was 81%; in data set [5], 82%; in data set [8], 36%. Also, the “stability in acidic medium” value in data set [7] is on record as “unstable in acidic medium”.

For the compound `Cc1cc2c3c(c1)c1c(n3CCO2)CCN(C)C1` [Compound 4, 5,8-dimethyl-1,2,7,8,9,10-hexahydro-[1,4]oxazino[2,3,4-hi]pyrido[4,3-b]indole], the inhibition at 1 µM came to 6% in data set [1]; 79% in data set [2]; 56% in data set [3]; 53% in data set [4]; 25% in data set [5]; 10% in data set [6]. Also, in data set [8], the inhibition at 1 µM was 46%.

`Cc1cc2c3c(c1)c1c(n3CC2c2ccc(F)cc2)CCN(C)C1` (stereo not drawn) [Compound 2]: the inhibition at 1 µM was 17% in data set [1]; 92% in data set [2]; 87% in data set [3]; 66% in data set [4]; 57% in data set [5]; 48% in data set [6]. The inhibition at 1 µM in data set [8] was determined as 89%.

Regarding `O=C(CCCN1CCc2c(c3cccc4c3n2CCC4)C1)c1ccc(F)cc1` [Compound 14], the figures for the inhibition at 1 µM in data set [1] and in data set [4] were 86% and 78%, respectively. For the same compound, the inhibition at 0.1 µM in data set [2] stood at 92%; in data set [3], 99%; in data set [5], 21%; in data set [8], 58%.

In the case of `Cc1cc2c3c(c1)c1c(n3C(c3ccccc3)C2)CCN(C)C1` (stereo not drawn) [Compound 12], the inhibition at 1 µM in data set [1] was 44%; in data set [4], 101%. Also, the inhibition at 0.1 µM in data set [2] was found to be 102%; in data set [3], 90%; in data set [5], 59%; in data set [8] it was 81%.

Take `CN1CCc2c(c3cccc4c3n2CC(c2ccncc2)C4)C1` (stereo not drawn) [Compound 7]: the results for the inhibition at 1 µM in data set [1] and in data set [4] were 54% and 92%, respectively. Also, the inhibition at 0.1 µM in data set [2] was -5%; in data set [3] it was 7%; in data set [5], -2%; in data set [8], 10%.

As to `CN1CCc2c(c3cccc4c3n2C(c2ccccc2)C(=O)N4)C1` (stereo not drawn) [Compound 6], the values for the inhibition at 1 µM in data set [1] and in data set [4] were 41% and 46%, respectively. The inhibition at 0.1 µM in data set [2] is 7%; in data set [3], 12%; in data set [5] it was -6%; in data set [8] it was 30%.
